# Measured values reported in patent US20240390295A1, “METHODS FOR TREATING DEPRESSION” (JANSSEN PHARMACEUTICA NV, priority 2020, published 2024).
# Columns and labels:
# [1] = tested on: adult patients (aged 18-64 years) with TRD; assay: CADSS-defined dissociation (CADSS total score >4); format: in vivo, human; conditions: for mean individual CADSS scores at recurrence: across follow-up timeframes
# From the text: One of skill in the art would readily be able to measure a patient's adverse events from experience and one or more tools utilized to make such assessments. For example, the Clinician-Administered Dissociative States Scale (CADSS) is an technique utilized to measure present-state dissociative symptoms, and, thus, may be utilized to assess treatment-emergent dissociative symptoms. The CADSS consists of 23 subjective items, divided into 3 components: Depersonalization (Items 3 to 7, 20, and 23), derealization (Items 1, 2, 8 to 13, 16 to 19, and 21) and amnesia (Items 14, 15, and 22). Participant's responses are coded on a 5-point scale (0=not at all through to 4=extremely). Thus, higher CADSS values represent a worse dissociative state, whereas lower CADSS values are indicative of a mild dissociative state.
# (§1) Vital signs, the Clinician-Administered Dissociative States Scale (CADSS), and the Modified Observer's Assessment of Alertness/Sedation (MOAA/S) were assessed at baseline and all treatment sessions (predose, and at 40 minutes, 1 hour [vital signs only unless spontaneously reported by the patient], and 1.5 hours postdose). Routine blood pressure (BP) readings were conducted at each treatment session, with elevations reported as AEs based on the clinician's judgement. The CADSS assessed treatment-emergent dissociative symptoms and consists of 23 questions, each coded on a 5-point scale (0=not at all, 1-mild, 2-moderate, 3=severe, 4-extreme), yielding a total score 0-92.11 A CADSS total score >4 indicated the presence of dissociative symptoms. The MOAA/S assessed treatment-emergent sedation: scores range from (=no response to painful stimulus to 5=readily responds to name spoken in normal tone. Any decrease in MOAA/s from pre-dose (score <5) indicated some degree of sedation. An abnormal elevation in BP was defined as systolic BP ≥180 mmHg and ≥20 mmHg higher than baseline and/or diastolic BP ≥105 mmHg and ≥15 mmHg greater than baseline.
# (§2) This analysis included any treatment sessions in which patients received ESK (either open-label or blinded). The occurrence and severity of AEs were assessed within the following timeframes: Month 1 (Week 1 and Weeks 2-4), Month 2 (Weeks 5-8), Months 3-6 and Months 6-12. Severity of clinician-reported AEs were scored as 0 (no AE), 1 (mild), 2 (moderate), and 3 (severe). To examine AEs in individual patients over time, only patients who received at least one ESK dose in the following period were included in the analyses of each respective period. Thus, patient data were retained in (i) Week 1 if the patient received ≥1 ESK dose in Weeks 2-4, (ii) Weeks 2-4 if the patient received ≥1 ESK dose in Weeks 5-8, (iii) Weeks 5-8 if the patient received ≥1 ESK dose in Months 3-6, and (iv) Months 3-6 if the patient received ≥1 ESK dose in Months 6-12.
# [2] = tested on: adult patients (aged 18-64 years) with TRD; assay: MOAA/S-defined sedation (score <5); format: in vivo, human
# Procedure: For measuring treatment session induced sedation, one of skill in the art may use the Modified Observer's Assessment of Alertness/Sedation Scale (MOAA/S). […] For subjects with a score of 4, the assessment should be repeated every 15 minutes. And for subjects with a score of ≤3, the assessment should be repeated every 5 minutes until the score. In some embodiments, the results of the MOAA/S may be correlated to levels of sedation defined by the American Society of Anesthesiologists (ASA) continuum.
# as §1, §2
# [3] = tested on: adult patients (aged 18-64 years) with TRD; assay: Measure-based increased blood pressure (abnormal elevation in BP); format: in vivo, human
# Procedure: as §1, §2
# [4] = tested on: adult patients (aged 18-64 years) with TRD; assay: Severity of recurrent clinician-reported AEs (0 no AE, 1 mild, 2 moderate, 3 severe); format: in vivo, human
# Procedure: Patients were monitored for >90 minutes after ESK administration at each treatment session, after which time they could leave the clinical site at the clinician's discretion. AEs were monitored and reported, and safety assessments, including clinical laboratory tests and physical examinations, were conducted throughout the study. Clinician-reported AEs were categorized as mild, moderate, or severe based on clinical judgement (Table 1).
# as §2
# Week 1 and Week 4 were set a priori as index weeks because they are the beginning and end of the induction period. Frequencies and maximum-reported severities of AEs reported during these index weeks served as stratifying variables by which to examine recurrence and severities of AE recurrences in future timeframes.
# [5] = tested on: adult patients (aged 18-64 years) with TRD; conditions: cited from earlier work
# [6] = Months 3-6, overall rate for timeframe
# [7] = Months 6-12, AE twice in Week 1
# [8] = Months 6-12, overall rate for timeframe
# [9] = Week 1, overall rate for timeframe
# [10] = Weeks 2-4, overall rate for timeframe
# [11] = Weeks 5-8, overall rate for timeframe
# [12] = human, in vivo, other: intranasal
smiles,measurement,setting,value
"CN[C@]1(c2ccccc2Cl)CCCCC1=O [esketamine, (S)-2-(2-chlorophenyl)-2-(methylamino)cyclohexanone]",CADSS-defined dissociation,"[1]; Months 3-6, AE once in Week 1",42.7%
same,CADSS-defined dissociation,"[1]; Months 3-6, AE twice in Week 1",61.3%
same,CADSS-defined dissociation,"[1]; Months 3-6, No AE in Week 1",19.4%
same,CADSS-defined dissociation,[1]; [6],38.6%
same,CADSS-defined dissociation,"[1]; Months 6-12, AE once in Week 1",26.8%
same,CADSS-defined dissociation,[1]; [7],38.7%
same,CADSS-defined dissociation,"[1]; Months 6-12, No AE in Week 1",15.9%
same,CADSS-defined dissociation,[1]; [8],25.9%
same,CADSS-defined dissociation,[1]; [9],56.6%
same,CADSS-defined dissociation,"[1]; Weeks 2-4, AE once in Week 1",59.1%
same,CADSS-defined dissociation,"[1]; Weeks 2-4, AE twice in Week 1",88.8%
same,CADSS-defined dissociation,"[1]; Weeks 2-4, No AE in Week 1",24.8%
same,CADSS-defined dissociation,[1]; [10],53.1%
same,CADSS-defined dissociation,"[1]; Weeks 5-8, AE once in Week 1",32.5%
same,CADSS-defined dissociation,"[1]; Weeks 5-8, AE twice in Week 1",64.6%
same,CADSS-defined dissociation,"[1]; Weeks 5-8, No AE in Week 1",15.6%
same,CADSS-defined dissociation,[1]; [11],34.9%
same,patients with maximum CADSS score >42,[1]; [12],< 3 patients
same,"measure-based dissociation not reported during Week 1, patients","[1]; human, in vivo, other: nasal spray (intranasal), 1 week",43%
same,mean individual CADSS scores at recurrence,[1]; maximum CADSS total score <=14,1.2-1.4
same,mean individual CADSS scores at recurrence,[1]; maximum CADSS total scores 15-24 and 24-42,1.3-2.1
same,MOAA/S-defined sedation,"[2]; Months 3-6, AE once in Week 1",47.7%
same,MOAA/S-defined sedation,"[2]; Months 3-6, AE twice in Week 1",74.5%
same,MOAA/S-defined sedation,"[2]; Months 3-6, No AE in Week 1",23.8%
same,MOAA/S-defined sedation,[2]; [6],37.5%
same,MOAA/S-defined sedation,"[2]; Months 6-12, AE once in Week 1",38.3%
same,MOAA/S-defined sedation,[2]; [7],51.8%
same,MOAA/S-defined sedation,"[2]; Months 6-12, No AE in Week 1",18.8%
same,MOAA/S-defined sedation,[2]; [8],28.4%
same,MOAA/S-defined sedation,[2]; [9],38.1%
same,MOAA/S-defined sedation,"[2]; Weeks 2-4, AE once in Week 1",65.7%
same,MOAA/S-defined sedation,"[2]; Weeks 2-4, AE twice in Week 1",95.4%
same,MOAA/S-defined sedation,"[2]; Weeks 2-4, No AE in Week 1",22.0%
same,MOAA/S-defined sedation,[2]; [10],44.2%
same,MOAA/S-defined sedation,"[2]; Weeks 5-8, AE once in Week 1",42.0%
same,MOAA/S-defined sedation,"[2]; Weeks 5-8, AE twice in Week 1",81.4%
same,MOAA/S-defined sedation,"[2]; Weeks 5-8, No AE in Week 1",15.8%
same,MOAA/S-defined sedation,[2]; [11],33.1%
same,MOAA/S mean recurrence scores,"[2]; after Week 1 or Week 4, regardless of highest MOAA/S",3.5-4.0
same,"MOAA/S mean recurrence score, single patient exception",[2]; [12],3.25
same,"measure-based sedation not reported during Week 1, patients","[2]; human, in vivo, other: intranasal, 1 week",62%
same,Measured-based increased blood pressure,"[3]; Months 3-6, AE once in Week 1",6.3%
same,Measured-based increased blood pressure,"[3]; Months 3-6, AE twice in Week 1",33.3%
same,Measured-based increased blood pressure,"[3]; Months 3-6, No AE in Week 1",2.4%
same,Measured-based increased blood pressure,[3]; [6],2.7%
same,Measured-based increased blood pressure,"[3]; Months 6-12, AE once in Week 1",6.3%
same,Measured-based increased blood pressure,[3]; [7],0%
same,Measured-based increased blood pressure,"[3]; Months 6-12, No AE in Week 1",3.1%
same,Measured-based increased blood pressure,[3]; [8],3.2%
same,Measured-based increased blood pressure,[3]; [9],3.6%
same,Measured-based increased blood pressure,"[3]; Weeks 2-4, AE once in Week 1",35.7%
same,Measured-based increased blood pressure,"[3]; Weeks 2-4, AE twice in Week 1",80.0%
same,Measured-based increased blood pressure,"[3]; Weeks 2-4, No AE in Week 1",3.4%
same,Measured-based increased blood pressure,[3]; [10],4.7%
same,Measured-based increased blood pressure,"[3]; Weeks 5-8, AE once in Week 1",17.9%
same,Measured-based increased blood pressure,"[3]; Weeks 5-8, AE twice in Week 1",60.0%
same,Measured-based increased blood pressure,"[3]; Weeks 5-8, No AE in Week 1",2.6%
same,Measured-based increased blood pressure,[3]; [11],3.4%
same,clinician-reported dissociation mean recurrence severity score,"[4]; AE moderate in Week 1, Months 3-6",1.4
same,clinician-reported dissociation mean recurrence severity score,"[4]; AE moderate in Week 1, Months 6-12",1.5
same,clinician-reported dissociation mean recurrence severity score,"[4]; AE moderate in Week 1, Weeks 2-4",1.5
same,clinician-reported dissociation mean recurrence severity score,"[4]; AE moderate in Week 1, Weeks 5-8",1.3
same,clinician-reported dissociation mean recurrence severity score,"[4]; AE severe in Week 1, Months 3-6",1.2
same,clinician-reported dissociation mean recurrence severity score,"[4]; AE severe in Week 1, Months 6-12",1.6
same,clinician-reported dissociation mean recurrence severity score,"[4]; AE severe in Week 1, Weeks 2-4",1.5
same,clinician-reported dissociation mean recurrence severity score,"[4]; AE severe in Week 1, Weeks 5-8",1.8
same,patients with a severe recurrence,"[4]; all clinician-reported AEs except dissociation, any observation period following Week 1 or 4",< 5 patients
same,patients with a moderate recurrence,"[4]; clinician-reported AEs except dissociation, dizziness, vertigo and nausea, any observation period",< 10 patients
same,"reported severity of dissociation, dizziness, nausea, sedation, vertigo, increased blood pressure",[4]; initial incidence and recurrence,mostly mild and rarely severe
same,clinician-reported dissociation mean recurrence severity score,"[4]; no dissociation in Week 1, all timeframes",1.3
same,severity of recurrences,[4]; regardless of highest severity in Weeks 1 or 4,mild to moderate
same,"incidence of dissociation, dizziness, nausea, sedation, vertigo",[5]; ESK plus OAD therapy,≥ 5%
same,incidence relative to placebo plus an OAD,[5]; five most common treatment-emergent events,≥ 2 fold
